Test results from patent US20230023092A1, “TREATMENT OF DEPRESSION AND OTHER VARIOUS DISORDERS WITH PSILOCYBIN” (COMPASS […], priority 2019, published 2023).

Key:
Format in all cases: in vivo, human
[1] = system: healthy subjects; experiment: Reading the Mind in the Eyes Test (RMET)
From the text: In some embodiments, Reading the Mind in the Eyes Test (RMET) is utilized to evaluate the safety and/or efficacy of psilocybin. The RMET has 36 items, in which subjects are presented with a photograph of the eyes region of the face and must choose 1 of 4 adjectives or phrases to describe the mental state of the person pictured. A definition handout is provided at the beginning of the task and a practice item precedes the first trial.
(§1) The Pictorial Empathy Test (PET), Reading the Mind in the Eyes Test (RMET), Scale of Social Responsibility (SSR), Social Value Orientation (SVO), and Toronto Empathy Questionnaire (TEQ) were performed. Table 20 summarizes the results of the mixed model for repeated measures (MMRM) analysis for each of the aforementioned social cognition panel scales measured on Day 7 and Day 84 after study drug administration.

[2] = system: healthy subjects; experiment: Pictorial Empathy Test (PET)
Method: In some embodiments, the Pictorial Empathy Test (PET) is utilized to evaluate the effect of psilocybin on affective empathy.
as §1

[3] = system: healthy subjects; experiment: Symptom Checklist-90 Item (SCL-90)
From the text: In some embodiments, the Symptom Checklist-90 item (SCL-90) questionnaire is used to evaluate the safety and/or efficacy of psilocybin. The SCL-90 is a relatively brief self-report psychometric instrument designed to evaluate a broad range of psychological problems and symptoms of psychopathology. In some embodiments, the SCL-90 is used to assess somatization, obsessive-compulsive behaviors, interpersonal sensitivity, depression, anxiety, hostility, phobic anxiety, paranoid ideation, and psychoticism of a subject treated according to the methods of the disclosure. The 90 items in the questionnaire are scored on a 5-point Likert scale, indicating the rate of occurrence of the symptom during the time reference. In some embodiments, after treating according to the methods of the disclosure, a subject's SCL-90 score decreases by about 5% to about 100%, for example, by about 5%, about 10%, about 15%, about 20%, about 25%, about 30%, about 35%, about 40%, about 45%, about 50%, about 55%, about 60%, about 65%, about 70%, about 75%, about 80%, about 85%, about 90%, about 95%, or about 100%.
The Neuroticism Extraversion Openness-Five Factor Inventory (NEO-FFI) and Symptom Checklist-90 Item (SCL-90) were administered. Details of the MMRM applied to the change from baseline scores for the NEO-FFI and SCL-90 are provided below in Table 2Q.

[4] = Day 7, psilocybin 10 mg - placebo
[5] = Day 7, psilocybin 25 mg - 10 mg
[6] = Day 7, psilocybin 25 mg - placebo
[7] = Day 84, psilocybin 10 mg - placebo
[8] = Day 84, psilocybin 25 mg - 10 mg
[9] = Day 84, psilocybin 25 mg - placebo

CN(C)CCc1c[nH]c2cccc(OP(=O)(O)O)c12 [Psilocybin, psilocybin]
RMET change from baseline (LS mean) ([1]; Day 7, psilocybin 10 mg): 0.4
RMET change from baseline, LS mean difference [1, 4]: 0.1
RMET change from baseline (LS mean) ([1]; Day 7, psilocybin 25 mg): 0.4
RMET change from baseline, LS mean difference [1, 5]: 0.0
RMET change from baseline, LS mean difference [1, 6]: 0.2
RMET change from baseline (LS mean) ([1]; Day 84, psilocybin 10 mg): 0.1
RMET change from baseline, LS mean difference [1, 7]: 0.2
RMET change from baseline (LS mean) ([1]; Day 84, psilocybin 25 mg): 0.4
RMET change from baseline, LS mean difference [1, 8]: 0.3
RMET change from baseline, LS mean difference [1, 9]: 0.5
PET change from baseline (LS mean) ([2]; Day 7, psilocybin 10 mg): −0.3
PET change from baseline, LS mean difference [2, 4]: −0.1
PET change from baseline (LS mean) ([2]; Day 7, psilocybin 25 mg): 0.0
PET change from baseline, LS mean difference [2, 5]: 0.3
PET change from baseline, LS mean difference [2, 6]: 0.2
PET change from baseline (LS mean) ([2]; Day 84, psilocybin 10 mg): −0.3
PET change from baseline, LS mean difference [2, 7]: −0.1
PET change from baseline (LS mean) ([2]; Day 84, psilocybin 25 mg): −0.1
PET change from baseline, LS mean difference [2, 8]: 0.3
PET change from baseline, LS mean difference [2, 9]: 0.1
SCL-90-somatisation change from baseline, LS mean ([3]; Day 7, psilocybin 10 mg): 0.1
SCL-90 anger hostility change from baseline, LS mean ([3]; Day 7, psilocybin 10 mg): −0.0
SCL-90 anxiety change from baseline, LS mean ([3]; Day 7, psilocybin 10 mg): −0.0
SCL-90 depression change from baseline, LS mean ([3]; Day 7, psilocybin 10 mg): 0.0
SCL-90 interpersonal sensitivity change from baseline, LS mean ([3]; Day 7, psilocybin 10 mg): −0.0
SCL-90 obsessive compulsive change from baseline, LS mean ([3]; Day 7, psilocybin 10 mg): −0.1
SCL-90 paranoid ideation change from baseline, LS mean ([3]; Day 7, psilocybin 10 mg): −0.0
SCL-90 phobic anxiety change from baseline, LS mean ([3]; Day 7, psilocybin 10 mg): −0.0
SCL-90 psychoticism change from baseline, LS mean ([3]; Day 7, psilocybin 10 mg): 0.0
SCL-90-somatisation change from baseline, LS mean difference [3, 4]: 0.1
SCL-90 anger hostility change from baseline, LS mean difference [3, 4]: −0.0
SCL-90 anxiety change from baseline, LS mean difference [3, 4]: −0.0
SCL-90 depression change from baseline, LS mean difference [3, 4]: 0.0
SCL-90 interpersonal sensitivity change from baseline, LS mean difference [3, 4]: −0.0
SCL-90 obsessive compulsive change from baseline, LS mean difference [3, 4]: 0.1
SCL-90 paranoid ideation change from baseline, LS mean difference [3, 4]: 0.0
SCL-90 phobic anxiety change from baseline, LS mean difference [3, 4]: −0.0
SCL-90 psychoticism change from baseline, LS mean difference [3, 4]: 0.0
SCL-90-somatisation change from baseline, LS mean ([3]; Day 7, psilocybin 25 mg): 0.1
SCL-90 anger hostility change from baseline, LS mean ([3]; Day 7, psilocybin 25 mg): −0.0
SCL-90 anxiety change from baseline, LS mean ([3]; Day 7, psilocybin 25 mg): −0.0
SCL-90 depression change from baseline, LS mean ([3]; Day 7, psilocybin 25 mg): 0.0
SCL-90 interpersonal sensitivity change from baseline, LS mean ([3]; Day 7, psilocybin 25 mg): 0.0
SCL-90 obsessive compulsive change from baseline, LS mean ([3]; Day 7, psilocybin 25 mg): −0.1
SCL-90 paranoid ideation change from baseline, LS mean ([3]; Day 7, psilocybin 25 mg): 0.1
SCL-90 phobic anxiety change from baseline, LS mean ([3]; Day 7, psilocybin 25 mg): 0.0
SCL-90 psychoticism change from baseline, LS mean ([3]; Day 7, psilocybin 25 mg): 0.0
SCL-90-somatisation change from baseline, LS mean difference [3, 5]: −0.0
SCL-90 anger hostility change from baseline, LS mean difference [3, 5]: 0.0
SCL-90 anxiety change from baseline, LS mean difference [3, 5]: 0.0
SCL-90 depression change from baseline, LS mean difference [3, 5]: −0.0
SCL-90 interpersonal sensitivity change from baseline, LS mean difference [3, 5]: 0.1
SCL-90 obsessive compulsive change from baseline, LS mean difference [3, 5]: −0.0
SCL-90 paranoid ideation change from baseline, LS mean difference [3, 5]: 0.1
SCL-90 phobic anxiety change from baseline, LS mean difference [3, 5]: 0.0
SCL-90 psychoticism change from baseline, LS mean difference [3, 5]: 0.0
SCL-90-somatisation change from baseline, LS mean difference [3, 6]: 0.1
SCL-90 anger hostility change from baseline, LS mean difference [3, 6]: −0.0
SCL-90 anxiety change from baseline, LS mean difference [3, 6]: 0.0
SCL-90 depression change from baseline, LS mean difference [3, 6]: 0.0
SCL-90 interpersonal sensitivity change from baseline, LS mean difference [3, 6]: 0.0
SCL-90 obsessive compulsive change from baseline, LS mean difference [3, 6]: 0.1
SCL-90 paranoid ideation change from baseline, LS mean difference [3, 6]: 0.1
SCL-90 phobic anxiety change from baseline, LS mean difference [3, 6]: 0.0
SCL-90 psychoticism change from baseline, LS mean difference [3, 6]: 0.0
SCL-90-somatisation change from baseline, LS mean ([3]; Day 84, psilocybin 10 mg): 0.0
SCL-90 anger hostility change from baseline, LS mean ([3]; Day 84, psilocybin 10 mg): 0.0
SCL-90 anxiety change from baseline, LS mean ([3]; Day 84, psilocybin 10 mg): −0.0
SCL-90 depression change from baseline, LS mean ([3]; Day 84, psilocybin 10 mg): 0.1
SCL-90 interpersonal sensitivity change from baseline, LS mean ([3]; Day 84, psilocybin 10 mg): 0.0
SCL-90 obsessive compulsive change from baseline, LS mean ([3]; Day 84, psilocybin 10 mg): −0.0
SCL-90 paranoid ideation change from baseline, LS mean ([3]; Day 84, psilocybin 10 mg): 0.1
SCL-90 phobic anxiety change from baseline, LS mean ([3]; Day 84, psilocybin 10 mg): 0.0
SCL-90 psychoticism change from baseline, LS mean ([3]; Day 84, psilocybin 10 mg): −0.0
SCL-90-somatisation change from baseline, LS mean difference [3, 7]: 0.0
SCL-90 anger hostility change from baseline, LS mean difference [3, 7]: −0.0
SCL-90 anxiety change from baseline, LS mean difference [3, 7]: −0.1
SCL-90 depression change from baseline, LS mean difference [3, 7]: 0.0
SCL-90 interpersonal sensitivity change from baseline, LS mean difference [3, 7]: −0.1
SCL-90 obsessive compulsive change from baseline, LS mean difference [3, 7]: 0.1
SCL-90 paranoid ideation change from baseline, LS mean difference [3, 7]: 0.1
SCL-90 phobic anxiety change from baseline, LS mean difference [3, 7]: −0.0
SCL-90 psychoticism change from baseline, LS mean difference [3, 7]: −0.0
SCL-90-somatisation change from baseline, LS mean ([3]; Day 84, psilocybin 25 mg): 0.0
SCL-90 anger hostility change from baseline, LS mean ([3]; Day 84, psilocybin 25 mg): 0.0
SCL-90 anxiety change from baseline, LS mean ([3]; Day 84, psilocybin 25 mg): −0.0
SCL-90 depression change from baseline, LS mean ([3]; Day 84, psilocybin 25 mg): 0.1
SCL-90 interpersonal sensitivity change from baseline, LS mean ([3]; Day 84, psilocybin 25 mg): 0.0
SCL-90 obsessive compulsive change from baseline, LS mean ([3]; Day 84, psilocybin 25 mg): −0.1
SCL-90 paranoid ideation change from baseline, LS mean ([3]; Day 84, psilocybin 25 mg): 0.1
SCL-90 phobic anxiety change from baseline, LS mean ([3]; Day 84, psilocybin 25 mg): 0.0
SCL-90 psychoticism change from baseline, LS mean ([3]; Day 84, psilocybin 25 mg): 0.0
SCL-90-somatisation change from baseline, LS mean difference [3, 8]: 0.0
SCL-90 anger hostility change from baseline, LS mean difference [3, 8]: −0.0
SCL-90 anxiety change from baseline, LS mean difference [3, 8]: 0.0
SCL-90 depression change from baseline, LS mean difference [3, 8]: 0.0
SCL-90 interpersonal sensitivity change from baseline, LS mean difference [3, 8]: 0.0
SCL-90 obsessive compulsive change from baseline, LS mean difference [3, 8]: −0.1
SCL-90 paranoid ideation change from baseline, LS mean difference [3, 8]: 0.0
SCL-90 phobic anxiety change from baseline, LS mean difference [3, 8]: 0.0
SCL-90 psychoticism change from baseline, LS mean difference [3, 8]: 0.0
SCL-90-somatisation change from baseline, LS mean difference [3, 9]: 0.0
SCL-90 anger hostility change from baseline, LS mean difference [3, 9]: −0.0
SCL-90 anxiety change from baseline, LS mean difference [3, 9]: −0.0
SCL-90 depression change from baseline, LS mean difference [3, 9]: 0.0
SCL-90 interpersonal sensitivity change from baseline, LS mean difference [3, 9]: −0.0
SCL-90 obsessive compulsive change from baseline, LS mean difference [3, 9]: 0.0
SCL-90 paranoid ideation change from baseline, LS mean difference [3, 9]: 0.1
SCL-90 phobic anxiety change from baseline, LS mean difference [3, 9]: 0.0
SCL-90 psychoticism change from baseline, LS mean difference [3, 9]: −0.0
